# Measurements published in patent publication US20130123481A1, “MODIFIED NUCLEOSIDES, NUCLEOTIDES, AND NUCLEIC ACIDS, AND USES THEREOF” (MODERNA THERAPEUTICS, priority 2011, published 2013).
# Legend:
# [1] = test system: peripheral blood mononuclear cells (PBMC); experiment: In Vitro Screening in PBMC - G-CSF protein expression; format: cell-based, human; details: 500 ng mRNA
# Excerpt: (§1) The supernatant was harvested and stored frozen until analyzed by ELISA to determine the G-CSF protein expression, and the induction of the cytokines interferon-alpha (IFN-α) and tumor necrosis factor alpha (TNF-α).
# [2] = test system: peripheral blood mononuclear cells (PBMC), tumor necrosis factor alpha (TNF-α); experiment: In Vitro Screening in PBMC - tumor necrosis factor alpha (TNF-α) induction; format: cell-based, human; details: 500 ng fully modified G-CSF mRNA; for TNF-α Expression (pg/ml) Donor 1: Lipofectamine 2000, PBMC Donor 1, supernatant ELISA; for TNF-α Expression (pg/ml) Donor 2: Lipofectamine 2000, PBMC Donor 2, supernatant ELISA; for TNF-α Expression (pg/ml) Donor 3: Lipofectamine 2000, PBMC Donor 3, supernatant ELISA
# Excerpt: as §1
# Balb-C mice = experiment: In Vivo Screening of Luciferase Modified mRNA (bioluminescence, total flux); details: fully modified luciferase mRNA in 1×PBS, subcutaneous, 42 to 103 ug, imaged 8 hours after dosing, total flux of entire mouse
# Experimental: A control of PBS was also tested. The dosages of the modified luciferase mRNA is also outlined in Table 31. 8 hours after dosing the mice were imaged to determine luciferase expression. Twenty minutes prior to imaging, mice were injected intraperitoneally with a D-luciferin solution at 150 mg/kg. Animals were then anesthetized and images were acquired with an IVIS Lumina II imaging system (Perkin Elmer). Bioluminescence was measured as total flux (photons/second) of the entire mouse.
# [3] = test system: Salmonella tester strains (TA97a, TA98, TA100 and TA1535) and Escherichia coli strain (WP2 uvrA pKM101); experiment: Microames Reverse Mutation Screen; details: for Cytotoxicity (reduction in the background lawn and/or number of revertants) / increase in the number of revertant colonies as compared with the vehicle control: any strain, with or without metabolic activation; for mutagenic (microAmes screen): up to 250 ug/well, strains TA97a, TA98, TA100, TA1535 and WP2 uvrA pKM101 with or without metabolic activation
# Experimental: The microames screen is a version of the full Ames preincubation assay. It detects both frameshift and base-pair substitution mutations using four Salmonella tester strains (TA97a, TA98, TA100 and TA1535) and one Escherichia coli strain (WP2 uvrA pKM101). Strains TA97a and TA98 detect frameshift mutations, and TA100, TA1535 and WP2 uvrA pKM101 detect base-pair substitution mutations. This scaled-down Ames test uses minimal compound, is conducted with and without metabolic activation (S9 fraction), and uses multiwell plates. This teste is a microbial assay to detect the mutagenic potential of test compounds.
# Positive control compounds were used at 4 different concentrations to ensure the assay system was sensitive to known mutagenic compounds. DMSO was used as the vehicle control.
# [4] = test system: peripheral blood mononuclear cells (PBMC), interferon-alpha (IFN-α); format: cell-based, human; details: for IFN-α Expression (pg/ml) Donor 1 / IFN-α Expression (pg/ml) Donor 2 / IFN-α Expression (pg/ml) Donor 3: 500 ng fully modified G-CSF mRNA; for IFN-α Expression (pg/ml) Donor 1: Lipofectamine 2000, PBMC Donor 1, supernatant ELISA; for IFN-α Expression (pg/ml) Donor 2: Lipofectamine 2000, PBMC Donor 2, supernatant ELISA; for IFN-α Expression (pg/ml) Donor 3: Lipofectamine 2000, PBMC Donor 3, supernatant ELISA
# Excerpt: as §1
# wild-type T7 polymerase = wild-type T7 polymerase (Escherichia phage T7, UniProt P00573); experiment: In Vitro Transcription with Wild-Type T7 Polymerase (transcription and capping yield); details: OD260; for In vitro transcription Yield: wild-type T7 polymerase; for Capping reaction Yield: enzymatic capping
# wild-type T7 polymerase, sequence (P00573 whole entry): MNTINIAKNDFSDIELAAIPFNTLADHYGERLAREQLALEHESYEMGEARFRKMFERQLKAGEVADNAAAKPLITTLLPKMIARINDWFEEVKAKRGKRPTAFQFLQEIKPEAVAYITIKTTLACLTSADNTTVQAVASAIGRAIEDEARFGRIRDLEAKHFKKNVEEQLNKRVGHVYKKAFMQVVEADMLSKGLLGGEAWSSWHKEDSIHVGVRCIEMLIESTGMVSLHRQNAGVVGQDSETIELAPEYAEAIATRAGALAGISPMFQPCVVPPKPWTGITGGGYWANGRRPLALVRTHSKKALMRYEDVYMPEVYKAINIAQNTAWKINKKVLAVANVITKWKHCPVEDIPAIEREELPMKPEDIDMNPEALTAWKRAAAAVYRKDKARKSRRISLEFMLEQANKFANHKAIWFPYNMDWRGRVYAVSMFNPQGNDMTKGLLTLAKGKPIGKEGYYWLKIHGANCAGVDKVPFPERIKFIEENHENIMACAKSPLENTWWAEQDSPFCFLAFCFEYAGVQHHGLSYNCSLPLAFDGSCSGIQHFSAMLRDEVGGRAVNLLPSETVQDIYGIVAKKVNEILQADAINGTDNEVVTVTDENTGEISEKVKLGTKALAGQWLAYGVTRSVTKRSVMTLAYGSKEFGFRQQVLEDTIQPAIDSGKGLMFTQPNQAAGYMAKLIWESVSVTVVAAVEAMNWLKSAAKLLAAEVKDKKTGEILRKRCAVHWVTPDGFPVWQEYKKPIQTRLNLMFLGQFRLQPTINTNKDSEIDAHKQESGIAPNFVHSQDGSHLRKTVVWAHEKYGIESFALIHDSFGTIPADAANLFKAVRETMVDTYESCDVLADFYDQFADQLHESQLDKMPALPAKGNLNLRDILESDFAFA
# Experimental: The luciferase and G-CSF modified mRNA were also subjected to an enzymatic capping reaction and each modified mRNA capping reaction was evaluated for yield by spectrophometic measurement (OD260) and correct size assessed using bioanalyzer.
# HeLa cells = experiment: G-CSF expression in HeLa cells (ELISA); format: cell-based, human; details: fully modified G-CSF mRNA transfected in HeLa cells, ELISA
# Experimental: (§2) To assess the activity of all our different chemical modifications in the context of a second open reading frame, we replicated experiments previously conducted using luciferase mRNA, with human G-CSF mRNA. […] The mutant T7 polymerase was obtained commercially (Durascribe® T7 Transcription kit (Cat. No. DS010925) (Epicentre®, Madison, Wis.).
# (§3) The modified RNA in Tables 45 and 46 were transfected in vitro in HeLa cells or added to rabbit reticulysates (250 ng of modified mRNA) as indicated. […] In Table 45, “NT” means not tested.
# rabbit reticulysates = experiment: G-CSF expression in rabbit reticulysates (ELISA); format: biochemical; details: 250 ng modified G-CSF mRNA in rabbit reticulysates
# Experimental: as §2, §3
# [5] = test system: peripheral blood mononuclear cells (PBMC), IFN-alpha; experiment: In Vitro PBMC Studies: Percent modification - IFN-alpha expression; format: cell-based, human
# Experimental: (§4) The supernatant was harvested and run by ELISA 22 hours after transfection to determine the protein expression.
# [6] = test system: peripheral blood mononuclear cells (PBMC), TNF-alpha; experiment: In Vitro PBMC Studies: Percent modification - TNF-alpha expression; format: cell-based, human
# Experimental: as §4
# [7] = test system: peripheral blood mononuclear cells (PBMC); experiment: In Vitro PBMC Studies: Percent modification - G-CSF expression; format: cell-based, human; details: average of PBMC donors D1-D3
# Experimental: 480 ng of G-CSF mRNA modified with 5-methylcytosine (5mC) and pseudouridine (pseudoU) or unmodified G-CSF mRNA was transfected with 0.4 uL of Lipofectamine 2000 into peripheral blood mononuclear cells (PBMC) from three normal blood donors (D1, D2, and D3). […] The supernatant was harvested and run by ELISA 22 hours after transfection to determine the protein expression. The expression of IFN-alpha and TNF-alpha may be a secondary effect from the transfection of the G-CSF mRNA.
# [8] = Stability of Modified RNA - storage, gel electrophoresis; format: physicochemical
# Experimental: Stability experiments were conducted to obtain a better understanding of storage conditions to retain the integrity of modified RNA. […] After the mRNA had been stored for 0 hours, 2 hours, 6 hours, 24 hours, 48 hours, 5 days and 14 days, the mRNA was analyzed by gel electrophoresis using a Bio-Rad EXPERION™ system. The modified, unmodified and lipoplexed G-CSF mRNA was also stored in RNASTABLE® (Biomatrica, Inc. San Diego, Calif.) at 40° C. or water at −80° C. or 40° C. for 35 days before being analyzed by gel electrophoresis.
# [9] = PBMC Donor 1, 0.4 uL Lipofectamine 2000
# [10] = G-CSF modified mRNA (wild-type T7)
# [11] = Luciferase modified mRNA (wild-type T7)
molecule,measurement,setting,value
"Cc1cn([C@@H]2O[C@H](CO)[C@@H](O)[C@H]2O)c(=O)nc1N [5-Methylcytidine, reference compound]",G-CSF Protein Expression,[1]; [9],291 pg/mL
same,G-CSF Protein Expression,[1]; PBMC Donor 2,277 pg/mL
same,G-CSF Protein Expression,[1]; PBMC Donor 3,359 pg/mL
same,TNF-α Expression (pg/ml) Donor 1,[2],176 pg/mL
same,TNF-α Expression (pg/ml) Donor 2,[2],136 pg/mL
same,TNF-α Expression (pg/ml) Donor 3,[2],193 pg/mL
same,Luciferase expression (photon/second),Balb-C mice,1.94E+07 photon/second
same,Cytotoxicity (reduction in the background lawn and/or number of revertants),[3],not observed
same,increase in the number of revertant colonies as compared with the vehicle control,[3],no increase
same,mutagenic (microAmes screen),[3],not mutagenic
same,IFN-α Expression (pg/ml) Donor 1,[4],643 pg/mL
same,IFN-α Expression (pg/ml) Donor 2,[4],359 pg/mL
same,IFN-α Expression (pg/ml) Donor 3,[4],529 pg/mL
same,In vitro transcription Yield,wild-type T7 polymerase; G-CSF mRNA,2.05 mg
same,Capping reaction Yield,wild-type T7 polymerase; [10],1.08 mg
same,In vitro transcription Yield,wild-type T7 polymerase; Luciferase mRNA,1.29 mg
same,Capping reaction Yield,wild-type T7 polymerase; [11],1.02 mg
O=c1[nH]c(=O)n([C@@H]2O[C@H](CO)[C@@H](O)[C@H]2O)cc1Br [5-bromouridine],G-CSF Protein Expression,[1]; [9],314 pg/mL
same,G-CSF Protein Expression,[1]; PBMC Donor 2,482 pg/mL
same,G-CSF Protein Expression,[1]; PBMC Donor 3,291 pg/mL
same,Luciferase expression (photon/second),Balb-C mice,3.75E+07 photon/second
Cc1cn([C@@H]2O[C@H](CO)[C@@H](O)[C@H]2O)c(=O)[nH]c1=O [5-methyluridine],G-CSF Protein Expression,[1]; [9],318 pg/mL
same,G-CSF Protein Expression,[1]; PBMC Donor 2,359 pg/mL
same,G-CSF Protein Expression,[1]; PBMC Donor 3,345 pg/mL
same,G-CSF protein (pg/ml) HeLa cells,HeLa cells,"347,045 pg/ml"
same,Luciferase expression (photon/second),Balb-C mice,7.42E+06 photon/second
same,G-CSF protein (pg/ml) Rabbit reticulysates cells,rabbit reticulysates,"147,250 pg/ml"
"Cn1cc([C@@H]2O[C@H](CO)[C@@H](O)[C@H]2O)c(=O)[nH]c1=O [Compound 1-methylpseudouridine, 1-methylpseudouridine]",Luciferase expression (photon/second),Balb-C mice,7.40E+07 photon/second
"C[C@]1(CO)O[C@@H](n2ccc(N)nc2=O)[C@H](O)[C@@H]1O [Compound 25, 4′-C-methyl cytidine]",Average IFN-a,[5],545 pg/mL
same,Average TNF-a,[6],44 pg/mL
same,Average G-CSF,[7],122 pg/mL
"CN(C)c1nc2c(ncn2[C@@H]2O[C@H](CO)[C@@H](O)[C@H]2O)c(=O)[nH]1 [Compound 50, N,N-dimethyl guanosine]",Average IFN-a,[5],376 pg/mL
same,Average TNF-a,[6],28 pg/mL
same,Average G-CSF,[7],189 pg/mL
Cn1cc([C@@H]2O[C@H](CO)[C@@H](O)[C@H]2O)c(=O)[nH]c1=O [N1-methylpseudouridine],G-CSF Protein Expression,[1]; [9],"21,495 pg/ml"
same,G-CSF Protein Expression,[1]; PBMC Donor 2,"16,550 pg/ml"
same,G-CSF Protein Expression,[1]; PBMC Donor 3,"12,441 pg/ml"
same,TNF-α Expression (pg/ml) Donor 1,[2],101 pg/mL
same,TNF-α Expression (pg/ml) Donor 2,[2],106 pg/mL
same,TNF-α Expression (pg/ml) Donor 3,[2],134 pg/mL
same,Cytotoxicity (reduction in the background lawn and/or number of revertants),[3],not observed
same,increase in the number of revertant colonies as compared with the vehicle control,[3],no increase
same,mutagenic (microAmes screen),[3],not mutagenic
same,G-CSF protein (pg/ml) Rabbit reticulysates cells,rabbit reticulysates,"230,000 pg/ml"
same,cytokine induction (in words),[4],no cytokine induction
same,IFN-α Expression (pg/ml) Donor 1,[4],26 pg/mL
same,IFN-α Expression (pg/ml) Donor 2,[4],75 pg/mL
same,IFN-α Expression (pg/ml) Donor 3,[4],138 pg/mL
same,In vitro transcription Yield,wild-type T7 polymerase; G-CSF mRNA,3.24 mg
same,Capping reaction Yield,wild-type T7 polymerase; [10],2.58 mg
same,In vitro transcription Yield,wild-type T7 polymerase; Luciferase mRNA,1.43 mg
same,Capping reaction Yield,wild-type T7 polymerase; [11],1.27 mg
CC(=O)Nc1ccn([C@@H]2O[C@H](CO)[C@@H](O)[C@H]2O)c(=O)n1 [N4-acetylcytidine],G-CSF Protein Expression,[1]; [9],50 pg/mL
same,G-CSF Protein Expression,[1]; PBMC Donor 2,136 pg/mL
same,G-CSF Protein Expression,[1]; PBMC Donor 3,36 pg/mL
same,G-CSF protein (pg/ml) HeLa cells,HeLa cells,"39,545 pg/ml"
same,Luciferase expression (photon/second),Balb-C mice,1.11E07 photon/second
same,G-CSF protein (pg/ml) Rabbit reticulysates cells,rabbit reticulysates,"8,000 pg/ml"
"O=c1[nH]cc([C@@H]2O[C@H](CO)[C@@H](O)[C@H]2O)c(=O)[nH]1 [pseudouridine, Pseudouridine]",G-CSF Protein Expression,[1]; [9],2477 pg/mL
same,G-CSF Protein Expression,[1]; PBMC Donor 2,"1,909 pg/ml"
same,G-CSF Protein Expression,[1]; PBMC Donor 3,"1,498 pg/ml"
same,G-CSF protein (pg/ml) HeLa cells,HeLa cells,"1,150,909 pg/ml"
same,Luciferase expression (photon/second),Balb-C mice,1.36E+07 photon/second
same,G-CSF protein (pg/ml) Rabbit reticulysates cells,rabbit reticulysates,"147,875 pg/ml"
"Modified G-CSF mRNA: G-CSF mRNA fully modified with 5-methylcytosine and pseudouridine, with or without lipoplex (0.75% RNAIMAX) (nucleic acid, listed as Homo Sapiens, 5mC/pseudoU; Cap1; polyA tail) GGGAAAUAAGAGAGAAAAGAAGAGUAAGAAGAAAUAUAAGAGCCACCAUGGCCGGUCCCGCGACCCAAAGCCCCAUGAAACUUAUGGCCCUGCAGUUGCUGCUUUGGCACUCGGCCCUCUGGACAGUCCAAGAAGCGACUCCUCUCGGACCUGCCUCAUCGUUGCCGCAGUCAUUCCUUUUGAAGUGUCUGGAGCAGGUGCGAAAGAUUCAGGGCGAUGGAGCCGCACUCCAAGAGAAGCUCUGCGCGACAUACAAACUUUGCCAUCCCGAGGAGCUCGUACUGCUCGGGCACAGCUUGGGGAUUCCCUGGGCUCCUCUCUCGUCCUGUCCGUCGCAGGCUUUGCAGUUGGCAGGGUGCCUUUCCCAGCUCCACUCCGGUUUGUUCUUGUAUCAGGGACUGCUGCAAGCCCUUGAGGGAAUCUCGCCAGAAUUGGGCCCGACGCUGGACACGUUGCAGCUCGACGUGGCGGAUUUCGCAACAACCAUCUGGCAGCAGAUGGAGGAACUGGGGAUGGCACCCGCGCUGCAGCCCACGCAGGGGGCAAUGCCGGCCUUUGCGUCCGCGUUUCAGCGCAGGGCGGGUGGAGUCCUCGUAGCGAGCCACCUUCAAUCAUUUUUGGAAGUCUCGUACCGGGUGCUGAGACAUCUUGCGCAGCCGUGAAGCGCUGCCUUCUGCGGGGCUUGCCUUCUGGCCAUGCCCUUCUUCUCUCCCUUGCACCUGUACCUCUUGGUCUUUGAAUAAAGCCUGAGUAGGAAG",freeze/thaw cycles tolerated,[8],12 freeze/thaw cycles
same,stable out to,[8]; stored at 25° C.,120 h
same,stable out to,[8]; stored at 37° C.,24 h
same,stable out to,[8]; stored at 50° C.,6 h
